Structures can show the parent of a compound that is named as a salt. Where two headings read alike, the source gives them in different places.
Tests used:
salivation in rabbits = test: anticholinergic action: inhibition of pilocarpine-increased salivation in rabbits under light urethane narcosis; format: in vivo; conditions: for inhibition at 3 mg/kg: Oryctolagus cuniculus, 3 mg/kg i.v., pilocarpine 5 mg/kg s.c.
Procedure: The low anticholinergic action can be shown by the lack of salivation inhibition in rabbits: The salivation in rabbits under light urethane narcosis was increased by pilocarpine injection (5 mg/kg. s.c.) and the amount of saliva was measured at 5-minute intervals. The inhibition of salivation is expressed as a percentage based upon the salivation of animals which only received pilocarpine.

rats = test: antidepressive action: suppression of ptosis, seeking behavior, motility and sensitivity to stimulus in rats given 2-hydroxy-2-ethyl-3-isobutyl-9,10-dimethoxy-1,2,3,4,6,7-hexahydro-11bH-benzo[a,d]quinolizine hydrochloride; format: in vivo; conditions: 3 x 50 mg/kg p.o.; for Activity in % compared to Amitriptyline: Amitriptyline 100%
Procedure: The same dosage was administered to a control group of 5 non-pretreated rats. The ratings include central and peripheral symptoms, which are characteristic for tricyclic antidepressants [cf. Ann. N.Y. Acad. Sci. 96, 279 (1962)]. […] These changes were recorded according to a rating scheme which utilized numbers. […] The stated percentages are compared with the values for Amitriptyline* (Amitriptyline 100%).

mice = test: acute toxicity in mice (24-hour values); conditions: mouse, in vivo
Source text: (§1) The low toxicity of the compounds of the invention can be illustrated by the acute toxicity of 1-methyl-10,11-dihydro-5-(3-dimethylaminopropyl)-5H-dibenzo[a,d]cycloheptene hydrochloride in mice (24-hour values): […]

[1] = acute toxicity in mice (24-hour values); conditions: mouse, in vivo, mice, 24-hour values
Source text: as §1

Row | Structure (SMILES) | inhibition at 3 mg/kg (salivation in rabbits) | Activity in % compared to Amitriptyline (rats) | also measured
1 | Cc1cccc2c1CCc1ccccc1C2=CCCN(C)C.Cl [1-methyl-10,11-dihydro-5-(3-dimethylaminopropylidene)-5H-dibenzo[a,d]cycloheptene hydrochloride] | 50% | 220% | –
2 | Cc1cccc2c1C=Cc1ccccc1C2=CCC[N+](C)(C)[O-] [1-methyl-5-(3-dimethylaminopropylidene)-5H-dibenzo[a,d]cycloheptene N-oxide] | – | – | salivation inhibition / anticholinergic action (in words) (salivation in rabbits): absence of substantial anticholinergic action; toxicity (in words) (mice): reduced toxicity; antidepressive action (in words) (rats): excellent antidepressive action; antidepressive action (in words) (rats; listed as 1-methyl-5-(3-dimethylaminopropylidene)-5-H-dibenzo[a,d]cyclohehptene N-oxide): considerably increased antidepressive action
3 | CN(C)CCC=C1c2ccccc2CCc2ccccc21 [Amitriptyline, 5-(3-dimethylaminopropylidene)-dibenzo[a,d][1,4] cycloheptadiene, reference compound] | 96% | 100% | –
4 | CNCCC=C1c2ccccc2C=Cc2c(C)cccc21.Cl [1-methyl-5-(3-methylaminopropylidene)-5H-dibenzo[a,d]cycloheptene hydrochloride] | 60% | 230% | –
5 | Cc1cccc2c1C=Cc1ccccc1C2=CCC[N+](C)(C)[O-] [1-methyl-5-(3-dimethylaminopropylidene)-5H-dibenzo[a,d]cycloheptene N-oxide hydrochloride] | 14% | 140% | –
6 | CNCCC=C1c2ccccc2CCc2c(C)cccc21.Cl [1-methyl-10,11-dihydro-5-(3-methylaminopropylidene)-5H-dibenzo[a,d]cycloheptene hydrochloride] | 50% | 140% | –
7 | Cc1cccc2c1C=Cc1ccccc1C2=CCCN(C)C.Cl [1-methyl-5-(3-dimethylaminopropylidene)-5H-dibenzo[a,d]cycloheptene hydrochloride] | 60% | 130% | –
8 | Cc1cccc2c1CCc1ccccc1C2CCCN(C)C.Cl (stereo not shown) [1-methyl-10,11-dihydro-5-(3-dimethylaminopropyl)-5H-dibenzo[a,d]cycloheptene hydrochloride] | 50% | 180% | LD50 at 24 h ([1]; iv, i.v., read-out: LD50 i.v.): 25 to 50 mg/kg; LD50 at 24 h ([1]; po, p.o., read-out: LD50 p.o.): 300 to 600 mg/kg
9 | CNCCCC1c2ccccc2CCc2c(C)cccc21.Cl (stereo not shown) [1-Methyl-10,11-dihydro-5-(3-methylaminopropyl)-5H-dibenzo[a,d]cycloheptene hydrochloride] | 40% | 180% | –
